Results on two molecules are retold here after patent publication US8273340B2, “Methods and compositions for attracting or repelling cockroaches” (The United States of America, as represented by the …, priority 2008, dated 2012).

The test system of series [1] is German roaches (B. germanica). Put plainly: Two-harborage arena bioassay of sustained release polymer formulations. It is filed as in vivo. The note with it: counted after 24 hours. The source says:
Evaluation of sustained release formulations: Three cockroach attractants (methyl tiglate, butyl heptanoate, and propyl proprionate) were formulated in one or more polymer formulations (Urethane, Pellethane, Santoprene, and/or Polyethylene) as indicated in Table 4.A sweater box (1.5×2.0×0.5 ft) provided the test arena. The sides of the arena were coated with a blend of mineral oil and Vaseline petroleum jelly. The tops of two 8 oz paper ice cream cups were tapped to the arena floor with masking tape and, prior to the addition of the test cockroaches, inverted cups without holes were fixed to the tapped lids. Twenty-five laboratory reared late stage nymphs or adult male German roaches (B. germanica), starved for 72 hrs, were added to the arena and allowed to calm down (ca. 1 hour). The starting inverted ice cream cups were carefully removed and each ice cream cup top was then supplied with a water tube (1.5 ml scintillation vial with water and stoppered with cotton), one lab chew food pellet, and either a test attractant polymer formulation or the corresponding polymer blank control. […] The cups were oriented so that the holes were facing each other. The number of roaches that sought harborage in the cups was counted after 24 hours by plugging the entrance holes with cotton, the roaches inside euthanized, and the numbers in each cup counted.

Series [2] can be described thus: Release rate of attractants from sustained release delivery systems. It is filed as physicochemical. The source says:
Several secondary release rate control systems were developed. The first was a sachet that can contain the above polymer releasing system. This sachet can be either polyvinylidine chloride (PvdC) barrier film (e.g., Saranex™) enclosed in a thermally sealed metalized polyethylene container to eliminate release of active compounds, or a metalized polyethylene sachet with a removable seal that covers a vapor diffusion controlling orifice which when removed begins the release process from the internal polymer/carrier, or metalized polyethylene sachet which contains a small vial with a vapor controlling orifice. In the case of the Saranex™ sachet, the actual porosity of the Saranex™ control release is based on type of PVdC and thickness of the film. In the case of the metalized polyethylene sachet and internal polymer/carrier, a specific orifice size controlled the rate of diffusion of the active from the device, as shown in FIG. 4. An additional means of containing and reducing the release of the liquid active compounds and providing a solid support for use in the above delivery system involved sorbing the active compounds into an inert absorbent such as Membrana GmbH's expanded microporous polyolefin Accurel® MP100 which are granular or pelletized polyethylenes that have 10-50 μm air pockets throughout and can contain up to 90% of their volume in active compounds . MP100 was easily loaded with 80% by wt active ingredient due to its porosity. […] Thus, placement into the metalized polyethylene sachet with its diffusion regulating orifice was required.
Active compounds (1 gm active in Accurel® MP100) were sealed within the metalized polyethylene sachet, and a 0.5 mm hole placed into the film, and sealed until use with a metalized tape. Release rates for propyl propanoate, methyl tiglate, and butyl hexanoate were calculated at 15.5, 11.4, and 4.8 mg/day, respectively. Longevity of this system was calculated to be 64, 87, and 208 days, respectively.
Release rates for the thermoset urethane (Flexane® 80P) and synthetic rubbers systems ranged from 0.055 to 0.2 mg/cm^2/day, depending on durometer/hardness that is a measure of polymer crosslinking. Best results were obtained at durometer/hardness levels above D30. Release rates for the Saranex system without the release control provided by the metalized polyethylene and diffusion control orifice were 187, 236, and 7 mg/day for propyl propanoate, methyl tiglate, and butyl hexanoate, respectively.

Setting [3] is: 1 gm active in Accurel MP100 in metalized polyethylene sachet with 0.5 mm hole.
Where [4] appears, read: 1 gm active in Accurel MP100 in metalized polyethylene sachet with 0.5 mm hole, FIG. 3.
Setting [5] is: Saranex system without metalized polyethylene and diffusion control orifice.

For the molecule `CCCOC(=O)CC` [Propyl Propanoate], in series [1] (formulated in urethane), the “attraction to treatment harborage versus polymer blank control (in words)” value was “significant attraction and subsequent aggregation”. The “Longevity of the release system” value in series [2] (setting [3]) was 64 days. Also, the results for the Release rate in series [2] (setting [4]) and in series [2] (setting [5]) were 15.5 mg/day and 187 mg/day, respectively.

Consider `C/C=C(\C)C(=O)OC` [methyl tiglate, methyl ester of tiglic acid (trans-2-methyl-2-butenoic acid (methyl tiglate))], for which, in series [1] (formulated with Santoprene), the “attraction to treatment harborage versus polymer blank control (in words)” value was “significant attraction and aggregation”. In series [2] (setting [3]), the “Longevity of the release system” value stood at 87 days. The values for the Release rate in series [2] (setting [4]) and in series [2] (setting [5]) were 11.4 mg/day and 236 mg/day, respectively.
